Experimental data published in ChEMBL document CHEMBL1122857, “A uniquely potent renin inhibitor and its unanticipated plasma binding component” (J Med Chem, 1985).
Non-standard residues stand in square brackets, D forms with d. Residues, ends and D or L forms follow the SMILES beside them. *: point of attachment. Sta = CC(C)C[C@H](N)[C@@H](O)CC(=O)O; X1 = c1ccc(CN2CCC(N*)CC2)cc1; Boc = CC(C)(C)OC(=O)*

Legend:
Renin [1] = biological target: T1, Renin (Homo sapiens, UniProt P00797); test: Compound was tested for inhibition of human kidney renin
T1 sequence (P00797 whole entry): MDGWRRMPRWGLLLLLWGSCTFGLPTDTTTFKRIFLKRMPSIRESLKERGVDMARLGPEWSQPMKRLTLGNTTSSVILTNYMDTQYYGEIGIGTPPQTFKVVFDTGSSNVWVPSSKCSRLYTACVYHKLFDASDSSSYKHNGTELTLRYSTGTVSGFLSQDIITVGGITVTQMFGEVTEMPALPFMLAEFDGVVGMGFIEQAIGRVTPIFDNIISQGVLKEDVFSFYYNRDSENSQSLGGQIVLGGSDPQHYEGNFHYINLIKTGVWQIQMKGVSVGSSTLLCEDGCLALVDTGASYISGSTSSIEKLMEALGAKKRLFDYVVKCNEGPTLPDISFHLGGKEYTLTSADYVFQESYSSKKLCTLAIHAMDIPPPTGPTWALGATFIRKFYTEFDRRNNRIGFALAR

Renin [2] = biological target: T1, Renin; test: (§1) Compound was tested for inhibition of human plasma renin; type: cell-free; details: read-out: I50
Renin (Sus scrofa) = test: Compound was tested for inhibition of hog kidney renin; details: read-out: I50
Renin (Homo sapiens) = biological target: T2, Renin (Homo sapiens) (UniProt P00797); test: as §1; type: cell-free; details: concentration not given here
T2 sequence (whole entry): T1 sequence (P00797 whole entry)

Row | SMILES | Ki (Renin [1]) [nM] | IC50 (Renin [2]) [nM] | IC50 (Renin (Sus scrofa)) [nM] | inhibition (Renin (Homo sapiens)) [%]
1 | CC(C)C[C@@H](CNCc1ccccc1)NC(=O)C[C@H](O)[C@H](CC(C)C)NC(=O)[C@H](Cc1ccccc1)NC(=O)[C@H](Cc1ccccc1)NC(=O)OC(C)(C)C | 0.026 | 1000 | 858 | 37
2 | CC(C)C[C@H](NC(=O)C[C@H](O)[C@H](CC(C)C)NC(=O)[C@H](Cc1ccccc1)NC(=O)[C@H](Cc1ccccc1)NC(=O)OC(C)(C)C)C(=O)N[C@@H](Cc1ccccc1)C(N)=O (Boc-FF[Sta]LF-NH2) | 4.8 |  | 88 | 
3 | CC(C)C[C@H](NC(=O)C[C@H](O)[C@H](CC(C)C)NC(=O)[C@H](Cc1c[nH]cn1)NC(=O)[C@H](Cc1ccccc1)NC(=O)OC(C)(C)C)C(=O)NC1CCN(Cc2ccccc2)CC1 (Boc-FH[Sta]L-X1) | 0.064 | 25 | 269 | 
